Compound: C1=CC2=C(C=CC(=C2)C=C3C(=O)NC(=NCC4=CC=CS4)S3)N=C1 [RO-3306]
Experiment: relative viability (nuclei count vs DMSO), 5 days (fraction); higher = more cells survive
Method in brief: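 A plate was accepted only when its control CV was below 25% and the cells had doubled at least once. Viability is defined from nuclear counts as treated wells divided by vehicle wells, with the median taken across plates. That median covers lung cancer cell lines grown in 1536-well plates, dosed by pinning at five √10-spaced library-drug concentrations, and counted in MetaXpress from 4× Hoechst images after 5 days.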

Cell Line | relative viability (0.01 µM) | relative viability (0.03162 µM) | relative viability (0.1 µM) | relative viability (0.3162 µM) | relative viability (1 µM)
SW 900 | 0.917 | 0.697 | 0.705 | 0.943 | 0.785
NCI-H1792 | 0.813 |  | 0.824 | 0.908 | 0.782
Calu-6 | 1.12 | 0.893 | 1.02 | 1 | 1.06
NCI-H727 | 0.892 | 0.704 | 1.01 | 1 | 1.2
A549 | 1.13 | 0.811 | 0.994 | 1 | 1.05
BEN | 0.903 | 0.888 | 0.894 | 1.03 | 0.976
NCI-H1437 | 1.03 | 0.942 | 0.926 | 1.03 | 1.08
SK-LU-1 | 1.08 | 0.924 | 1.07 | 1.01 | 0.995
NCI-H1915 | 1.05 | 0.944 | 0.98 | 0.992 | 0.536
LU99A | 0.983 | 0.831 | 0.876 | 0.912 | 0.817
NCI-H1975 | 1.09 | 0.804 | 0.869 | 0.997 | 0.91
NCI-H2228 | 1.07 | 0.96 | 1.09 | 1 | 0.696
NCI-H1563 | 0.966 | 0.887 | 0.936 | 0.993 | 0.953
SK-MES-1 | 1.07 | 0.963 | 1.02 | 1.08 | 1.08
NCI-H2009 | 1.03 | 0.955 | 0.983 | 1.02 | 1
COR-L 105 | 0.859 | 0.784 | 0.798 | 0.906 | 0.948
LCLC-103H | 1.01 | 0.935 | 1.02 | 0.998 | 0.923
NCI-H3122 | 1.05 | 0.99 | 1.01 | 1.05 | 1.04
NCI-H1703 | 1.17 | 0.837 | 0.969 | 0.751 | 0.906
CAL-12T | 1.01 | 0.884 | 0.906 | 0.977 | 1.07

Cell Line | relative viability (0.01 µM) | relative viability (0.03162 µM) | relative viability (0.1 µM) | relative viability (0.3162 µM) | relative viability (1 µM)
NCI-H1355 | 1.12 | 0.907 | 1.01 | 1.01 | 0.914
NCI-H650 | 0.834 | 0.803 | 0.938 | 0.992 | 0.945
NCI-H1650 | 0.885 | 0.729 | 0.795 | 0.881 | 0.728
NCI-H661 | 0.995 | 0.951 | 0.978 | 0.963 | 1.06
NCI-H2342 | 1.02 | 0.865 | 0.941 | 0.914 | 0.932
NCI-H322M | 0.86 | 0.908 | 0.854 | 0.954 | 1.01
HCC-44 | 0.985 | 1 | 1.02 | 0.957 | 0.901
PC-3 [JPC-3] | 1.03 | 0.929 | 1.03 | 1.01 | 1.06
NCI-H1944 | 1.08 | 0.911 | 0.917 | 1.01 | 0.929
HCC-827 | 1.02 | 0.955 | 1.03 | 1.03 | 1.06
NCI-H1666 | 0.962 | 0.904 | 0.938 | 0.941 | 0.885
NCI-H2126 | 1.01 | 0.916 | 0.988 | 1.03 | 0.938
LXF-289 | 1.01 | 1 | 1.01 | 1.02 | 1
NCI-H358 | 1.13 | 0.779 | 0.902 | 0.947 | 0.766
NCI-H1734 | 1.01 | 0.808 | 0.912 | 0.991 | 0.9
NCI-H1648 | 0.863 |  | 0.877 | 0.858 | 1.01
NCI-H2087 | 1.11 | 0.918 | 1.1 | 1.04 | 0.991
NCI-H460 | 1.05 | 0.956 | 0.983 | 1.02 | 1.04
NCI-H1793 | 1.09 | 0.694 | 0.865 | 0.993 | 1.12
A-427 | 1.06 | 0.94 | 1 | 1.02 | 0.574
